The record followed here is patent US20170314007A1, “MEDICAMENT DESIGN POCKET OF ORNITHINE DECARBOXYLASE AND APPLICATION OF MEDICAMENT DESIGN POCKET” (CHINA THREE GORGES UNIVERSITY, priority 2014, published 2017).

The assay addresses T1, human ODC (Homo sapiens, UniProt P11926).
T1 construct: His tag (from pET28a); made in house; host or cells: Escherichia coli BL21
T1 sequence (P11926 1-461): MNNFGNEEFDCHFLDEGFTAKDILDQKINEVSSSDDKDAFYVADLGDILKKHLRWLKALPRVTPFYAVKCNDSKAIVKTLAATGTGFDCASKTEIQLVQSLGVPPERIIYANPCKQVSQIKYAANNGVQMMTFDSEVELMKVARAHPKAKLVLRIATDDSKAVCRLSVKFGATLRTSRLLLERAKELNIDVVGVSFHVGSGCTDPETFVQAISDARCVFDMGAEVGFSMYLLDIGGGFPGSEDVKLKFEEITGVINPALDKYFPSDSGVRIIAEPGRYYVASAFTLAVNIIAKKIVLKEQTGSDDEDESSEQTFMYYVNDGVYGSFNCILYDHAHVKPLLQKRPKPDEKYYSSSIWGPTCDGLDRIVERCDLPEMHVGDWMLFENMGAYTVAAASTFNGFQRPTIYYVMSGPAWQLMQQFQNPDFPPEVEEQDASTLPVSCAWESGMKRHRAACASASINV
Put plainly: Detection of inhibitory activity of inhibitor for human ODC protein (absorbance at 426 nm, ODC inhibition ratio). It is filed as biochemical. Particulars: for inhibitory capacity on human ODC compared with DFMO: 1 mM of the medicament, comparison of histograms with DFMO inhibitor. On the procedure:
400 uL substrate reaction mixture and 50 ug ODC protein are added to EP tube, mixed evenly, and the EP tube is placed in 37° C. water bath for 30 min; 400 uL 10% TDA is added to terminate the reaction, centrifuged 5 min at 5000 rpm at room temperature, then 100 uL supernatant is fetched and mixed with 200 uL of 4 mol/L NaOH, 400 uL of n-amyl alcohol is added to mix well, centrifuged 5min at 2000 rpm, then 200 uL of the supernatant is transferred to a new EP tube, and 200 uL of 0.1 mol/L sodium tetraborate (pH 8.0) is added to mix evenly, and 200 uL of 10 mmol/L trinitrobenzene sulfonic acid is added to mix fully, and then 400 uL DMSO is added to fix fully for 1 min, centrifuged 5 min at 3000 rpm; finally the supernatant is fetched to 96-well plate and its absorbance at 426 nm is detected by a microplate reader, to get the OD value with out adding […];
According to the method described in step 4), after adding 400 μL substrate reaction mixture, the ODC inhibitor is added immediately, and subsequent procedures are the same as the step 4);
The ODC inhibition ratio is calculated according to the following formula;
Control difference=the mean OD value of the control group adding the inhibitor−the mean OD value of the control group without adding inhibitor, of which, the inhibitor added in step 5) in the control group is DFMO inhibitor;
Experimental difference= the mean OD value of the experiment group adding the inhibitor−the mean OD value of the experiment group without adding inhibitor.
ODC inhibition ratio=[(control difference-experimental difference)/control difference]×100%.
The substrate reaction mixture in step 4): dissolve 17.57 ul β-mercaptoethanol, 55.84mg of 1.5 mM EDTA disodium salt, 75 nM PLP stock solution and 2 mM ornithine hydrochloride in 150 mM PBS (pH 7.1).
400 uL substrate reaction mixture (17.57 ul of β-mercaptoethanol, 55.84 mg of 1.5 mM EDTA disodium salt, 75 nM PLP stock solution, 2 mM ornithine hydrochloride are dissolved in 150 mM PBS (pH 7.1)) and 50 ug ODC protein are added to a 1.5 mL of EP tube, mixed evenly, and the EP tube is placed in 37° C water bath for 30 min; 400 uL 10% TDA is added to terminate the reaction, centrifuged 5 min at 5000 rpm at room temperature, then 100 uL supernatant is fetched and mixed with 200 uL of 4 mol/L NaOH, 400 uL of n-amyl alcohol is added to mix well, centrifuged 5 min at 2000 rpm then 200 uL of the supernatant is transferred to a new EP tube, and 200 uL of sodium tetraborate (0.1 mol/L, pH 8.0) is added to mix evenly, and 200 uL of 10 mmol/L trinitrobenzene sulfonic acid is added to mix fully, and then 400 uL DMSO is added to fix fully for 1 min, centrifuged 5 min at 3000 rpm, finally the supernatant is fetched to 96-well plate and its absorbance at 426 nm is detected by a microplate reader. […]

As to `N#Cc1ccc(C2Nc3cccc4cccc(c34)N2)cc1`, for the setting “concentration range 1 nM-5 mM, histogram FIG. 5”, the “inhibitory activity on human ODC” value is “has the ability to inhibit human ODC activity within the range of 1 nM-5 mM, and the higher the concentration, the stronger tire inhibitory ability”.

On to `CN(C)c1ccc(/C=N/Nc2nc(N)nc(N)n2)cc1` [4-(dimethylamino)-benzaldehyde-(4,6-diamino-1,3,5) triazine], for which the “inhibitory activity on human ODC” value (concentration range 1 nM-1 mM, histogram FIG. 9, compared with DFMO) is “has inhibitory effect on human ODC activity within the concentration range of 1 nM-1 mM”.

As to `CCOC(=O)c1cccc(NC(=O)c2ccccc2)c1` [D17, ethyl-3-(benzoylamino) methyl benzoate], the “inhibitory capacity on human ODC compared with DFMO” value is listed as “equivalent to that of 2.5 mM DFMO”.

As to `COc1ccc(C(=O)C[n+]2ccccc2/C=N/[O-])cc1` [D19, 2-[(hydroxyimino)methyl]-1-[2-(4-methoxyphenyl)-2-oxoethyl] pyridinium], the “inhibitory capacity on human ODC compared with DFMO” value is “equivalent to that of 2.5 mM DFMO”.
